According to patent US7998948B2, “Pharmaceutical composition for treating esophageal cancer” (Eisai R&D Management Co., Ltd., priority 2007, dated 2011):
pIC50: −log10 of the molar value.

Tests used:
Assay type in all cases: cell-based
[1] = tested on: OE33 human esophageal cancer cells; experiment: Inhibitory action against proliferation of human esophageal cancer cells (OE33); details: OE33, 72 h, 0E33 cells, RPMI1640 with 10% FBS, 3 days incubation, Cell Counting Kit-8, read-out: concentration of the test substance required to inhibit 50% of cell proliferation (IC50), 0E33
Protocol: (§1) Human esophageal cancer cells (OE19, OE21 and OE33) were purchased from Dainippon Sumitomo Pharma Co., Ltd. OE19, OE21 or was suspended in RPMI1640 medium (purchased from Sigma) containing 10% FBS. The cell suspension (2×10^4 cells/ml) was dispensed into a 96-well plate (purchased from FALCON; product No. 353075) by 0.1 ml/well, and incubated at 37° C. in a 5% CO2 incubator overnight. After the incubation, 0.1 ml of the test substance diluted with RPMI1640 medium containing 10% FBS was added to each well, which was further incubated for 3 days in the 5% CO2 incubator (37° C.). After the incubation, 10 μl of Cell Counting Kit-8 (purchased from DOJINDO Laboratories) was added to each well, which were incubated for about 2 hours in the 5% CO2 incubator (37° C.). After the incubation, the absorbance of the each well was measured using a plate reader MTP-500 (Corona Electric Co., Ltd) with a measurement wavelength of 450 nm and a control wavelength of 660 nm. A ratio of absorbance (%) of each well with the test substance against the wells without the test substance was determined, and based on this ratio, the concentration of the test substance required to inhibit 50% of cell proliferation (IC50; μM) was determined and the results are shown in Table 1.

[2] = tested on: OE19 human esophageal cancer cells; experiment: Inhibitory action against proliferation of human esophageal cancer cells (OE19); details: OE19, 72 h, 0E19 cells, RPMI1640 with 10% FBS, 3 days incubation, Cell Counting Kit-8, read-out: concentration of the test substance required to inhibit 50% of cell proliferation (IC50), 0E19
Protocol: as §1

[3] = tested on: OE21 human esophageal cancer cells; experiment: Inhibitory action against proliferation of human esophageal cancer cells (OE21); details: OE21, 72 h, 0E21 cells, RPMI1640 with 10% FBS, 3 days incubation, Cell Counting Kit-8, read-out: concentration of the test substance required to inhibit 50% of cell proliferation (IC50), 0E21
Protocol: as §1

pIC50 [1] | pIC50 [2] | pIC50 [3] | Structure (SMILES)
6.74 | 5.38 | < 5.00 | O=C(Nc1cc(Oc2ccc(NC(=O)C3(C(=O)Nc4ccc(F)cc4)CC3)c(F)c2)ccn1)N1CCC1 [N-[4-({2-[(Azetidin-1-ylcarbonyl)amino]pyridin-4-yl}oxy)-2-fluorophenyl]-N′-(4-fluorophenyl)cyclopropane-1,1-dicarboxamide]
6.62 | 5.28 | 5.19 | O=C(Nc1cc(Oc2cc(F)c(NC(=O)C3(C(=O)Nc4ccc(F)cc4)CC3)cc2F)ccn1)N1CC(O)C1 [N-{2,5-Difluoro-4-[(2-{[(3-hydroxyazetidin-1-yl)carbonyl]amino}pyridin-4-yl)oxy]phenyl}-N′-(4-fluorophenyl)cyclopropane-1,1-dicarboxamide]
6.60 | 5.49 | 5.13 | O=C(Nc1cc(Oc2cc(F)c(NC(=O)C3(C(=O)Nc4ccc(F)cc4)CC3)cc2F)ccn1)N1CC(CO)C1 [N-(2,5-Difluoro-4-{[2-({[3-(hydroxymethyl)azetidin-1-yl]carbonyl}amino)pyridin-4-yl]oxy}phenyl)-N′-(4-fluorophenyl)cyclopropane-1,1-dicarboxamide]
6.85 | 5.64 | 5.77 | CN1CCC(N(C)C(=O)Nc2cc(Oc3cc(F)c(NC(=O)C4(C(=O)Nc5ccc(F)cc5)CC4)cc3F)ccn2)CC1 [N-(2,5-Difluoro-4-{[2-({[methyl(1-methylpiperidin-4-yl)amino]carbonyl}amino)pyridin-4-yl]oxy}phenyl)-N′-(4-fluorophenyl)cyclopropane-1,1-dicarboxamide]
5.80 | 5.44 | 5.26 | CN1CCN(C2CCN(C(=O)Nc3cc(Oc4ccc(NC(=O)C5(C(=O)Nc6ccc(F)cc6)CC5)c(F)c4)ccn3)CC2)CC1 [N-(2-Fluoro-4-{[2-({[4-(4-methylpiperazin-1-yl)piperidin-1-yl]carbonyl}amino)pyridin-4-yl]oxy}phenyl)-N′-(4-fluorophenyl)cyclopropane-1,1-dicarboxamide]
6.17 | 5.46 | 5.52 | CN1CCN(C2CCN(C(=O)Nc3cc(Oc4cc(F)c(NC(=O)C5(C(=O)Nc6ccc(F)cc6)CC5)cc4F)ccn3)CC2)CC1 [N-(2,5-Difluoro-4-{[2-({[4-(4-methylpiperazin-1-yl)piperidin-1-yl]carbonyl}amino)pyridin-4-yl]oxy}phenyl)-N′-(4-fluorophenyl)cyclopropane-1,1-dicarboxamide]
